Molecules are shown by their SMILES.

Results on 2 compounds are retold here after patent US6734182B2, “Aryl sulfonamides and sulfamide derivatives and uses thereof” (Synaptic Pharmaceutical Corporation, priority 1995, dated 2004).

For one assay, the target named is T1, human Y1 receptor (Homo sapiens, UniProt P25929).
T1 construct: expressed in transfected cells
T1 sequence (P25929 1-384): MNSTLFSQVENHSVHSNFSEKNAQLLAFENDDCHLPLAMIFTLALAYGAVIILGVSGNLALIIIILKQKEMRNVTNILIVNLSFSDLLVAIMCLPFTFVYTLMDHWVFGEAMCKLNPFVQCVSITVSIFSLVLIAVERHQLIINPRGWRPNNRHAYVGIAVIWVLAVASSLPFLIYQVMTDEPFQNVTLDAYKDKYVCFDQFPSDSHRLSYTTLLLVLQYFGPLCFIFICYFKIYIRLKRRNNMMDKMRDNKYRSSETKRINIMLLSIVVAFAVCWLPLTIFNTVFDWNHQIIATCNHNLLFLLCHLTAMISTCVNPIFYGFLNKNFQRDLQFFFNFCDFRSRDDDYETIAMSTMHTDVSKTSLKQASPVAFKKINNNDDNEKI
Nature of the assay: Radioligand binding to cloned human Y1 receptor (125I-PYY). The settings on record: cloned human Y1, stably transfected cells, read-out: Binding Affinity (K1 (nM) vs. 125I-PYY) Human Receptor Y1.

A further assay deals with T2, human α2B receptor (Homo sapiens, UniProt P18089).
T2 construct: expressed in transfected cells
T2 sequence (P18089 whole entry): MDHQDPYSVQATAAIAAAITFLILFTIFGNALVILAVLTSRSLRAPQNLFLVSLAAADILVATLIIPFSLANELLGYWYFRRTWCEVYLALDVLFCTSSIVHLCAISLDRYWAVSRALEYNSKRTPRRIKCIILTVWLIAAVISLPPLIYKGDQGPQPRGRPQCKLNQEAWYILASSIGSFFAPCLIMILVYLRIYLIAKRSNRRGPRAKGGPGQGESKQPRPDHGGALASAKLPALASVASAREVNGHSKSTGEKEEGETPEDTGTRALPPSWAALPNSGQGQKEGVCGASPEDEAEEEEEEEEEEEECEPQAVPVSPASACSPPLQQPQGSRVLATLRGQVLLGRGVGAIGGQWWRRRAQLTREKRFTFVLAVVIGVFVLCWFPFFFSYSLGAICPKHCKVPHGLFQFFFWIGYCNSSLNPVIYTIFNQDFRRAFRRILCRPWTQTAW
In words: Binding to cloned human α2B adrenergic receptor ([3H]rauwolscine).

For the next assay, the target named is T3, human α1a receptor (Homo sapiens, UniProt P35348).
T3 construct: expressed in transfected cells
T3 sequence (P35348 whole entry): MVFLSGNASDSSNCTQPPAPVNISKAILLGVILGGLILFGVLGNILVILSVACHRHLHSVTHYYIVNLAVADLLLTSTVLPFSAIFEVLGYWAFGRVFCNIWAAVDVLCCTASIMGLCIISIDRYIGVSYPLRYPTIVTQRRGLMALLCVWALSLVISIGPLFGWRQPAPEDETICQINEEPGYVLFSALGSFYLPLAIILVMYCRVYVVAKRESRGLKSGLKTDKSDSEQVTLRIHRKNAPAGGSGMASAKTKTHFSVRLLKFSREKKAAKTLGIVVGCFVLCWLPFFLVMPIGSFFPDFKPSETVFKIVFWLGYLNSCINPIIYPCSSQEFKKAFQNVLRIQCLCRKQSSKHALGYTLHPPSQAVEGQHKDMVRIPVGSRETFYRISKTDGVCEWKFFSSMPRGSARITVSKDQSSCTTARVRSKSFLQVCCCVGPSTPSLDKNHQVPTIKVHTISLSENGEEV
In words: Binding to cloned human α1a adrenergic receptor.

Another assay addresses T4, human 5HT2 receptor (Homo sapiens, UniProt P28223).
T4 construct: expressed in transfected cells; host or cells: COS-7 cells (DEAE-dextran); the same paragraph also names the deposited line L-NGC-5HT2 (ATCC CRL 10287)
Nature of the assay: Binding to human 5HT2 receptor ([3H]ketanserin). The settings on record: cloned human receptor.

Assay [1] concerns the target T5, human dopamine D3 receptor (Homo sapiens, UniProt P35462).
T5 construct: expressed in transfected cells; host or cells: COS-7 cells, transient
Nature of the assay: Binding to human dopamine D3 receptor ([3H]spiperone). The settings on record: cloned human receptor.

Another assay concerns the target T6, human Y4 receptor (Homo sapiens, UniProt P50391).
T6 construct: expressed in transfected cells
In words: Radioligand binding to cloned human Y4 receptor (125I-PYY). The settings on record: cloned human Y4, stably transfected cells, read-out: Binding Affinity (K1 (nM) vs. 125I-PYY) Human Receptor Y4. The procedure:
Human Y1, human Y2, and rat Y5 receptors were co-transfected with a G-418 resistant gene into the human embryonic kidney 293 cell line by a calcium phosphate transfection method (Cullen, 1987). Stably transfected cells were selected with G-418. Human Y4 and human Y5 receptors were similarly transfected into mouse fibroblast LM(tk−) cells and NIH-3T3 cells.
Binding of the compounds of the present invention to the human Y1, Y2, Y4 and Y5 receptors was evaluated using stably transfected 293 or LM(tk−) cells as described above. Stably transfected cell lines which may be used for binding assays include, for example, for the human Y1 receptor, 293-hY1-5 (deposited Jun. 4, 1996, under ATCC Accession No. CRL-12121), for the human Y2 receptor, 293-hY2-10 (deposited Jan. 27, 1994, under ATCC Accession No. CRL-11537), for the human Y4 receptor, L-hY4-3 (deposited Jan. 11, 1995, under ATCC Accession No. CRL-11779), and for the human Y5 receptor, L-hY5-7 (deposited Nov. 15, 1995, under ATCC Accession No. CRL-11995).
Membranes were harvested from COS-7 cells 48 hours after transient transfection. Adherent cells were washed twice in ice-cold phosphate buffered saline (138 mM NaCl, 8.1 mM Na2HPO4, 2.5 mM KCl, […], 0.9 mM CaCl2, 0.5 mM MgCl2, pH 7.4) and lysed by sonication in ice-cold sonication buffer (20 mM Tris-HCl, 5 mM EDTA, pH 7.7). Large particles and debris were cleared by low speed centrifugation (200 x g, 5 min, 4° C.). Membranes were collected from the supernatant fraction by centrifugation (32,000 x g, 18 min, […] ), washed with ice-cold hypotonic buffer, and collected again by centrifugation (32,000 x g, 18 min, 4° C.). […] Protein concentration was measured by the Bradford method (Bradford, 1976) using Bio-Rad Reagent, with bovine serum albumin as a standard. Membranes were held on ice for up to one hour and used fresh, or flash-frozen and stored in liquid nitrogen.
Membranes were prepared similarly from 293, LM(tk−), and NIH-3T3 cells. To prepare membranes from baculovirus infected cells, 2×10^7 Sf21 cells were grown in 150 mm tissue culture dishes and infected with a high-titer stock of hY5BB3. Cells were incubated for 2-4 days at 27° C., no CO2 be fore harvesting and membrane preparation as described above.

A further assay addresses T7, human 5HT1Dβ receptor (Homo sapiens, UniProt P28222).
T7 construct: expressed in transfected cells
In words: Binding to human 5HT1Dβ receptor ([3H]serotonin). The settings on record: cloned human receptor.

The target in the next assay is T8, cloned human Y5 receptor (Homo sapiens, UniProt Q15761).
T8 construct: expressed in transfected cells
T8 sequence (Q15761 1-445): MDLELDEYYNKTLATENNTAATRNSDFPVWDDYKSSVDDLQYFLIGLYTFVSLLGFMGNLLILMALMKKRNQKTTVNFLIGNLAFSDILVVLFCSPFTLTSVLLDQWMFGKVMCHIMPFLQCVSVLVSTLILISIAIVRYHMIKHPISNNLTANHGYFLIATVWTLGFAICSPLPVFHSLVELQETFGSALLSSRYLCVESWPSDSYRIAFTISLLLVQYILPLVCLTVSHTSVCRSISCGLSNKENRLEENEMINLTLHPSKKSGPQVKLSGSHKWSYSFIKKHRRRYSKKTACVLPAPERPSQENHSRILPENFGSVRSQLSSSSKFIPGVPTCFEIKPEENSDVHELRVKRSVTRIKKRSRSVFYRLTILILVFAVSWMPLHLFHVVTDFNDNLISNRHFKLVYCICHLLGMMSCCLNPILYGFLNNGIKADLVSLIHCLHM
Nature of the assay: Functional assay: block of NPY-induced inhibition of cAMP accumulation in forskolin-stimulated LM(tk-) cells (radioimmunoassay of cAMP). The assay is classed as cell-based. Particulars: antagonism of NPY-induced inhibition of cAMP accumulation, forskolin-stimulated LM(tk-) cells with human Y5; at least three experiments.

Another assay addresses T9, human Y5 receptor (Homo sapiens, UniProt Q15761).
T9 construct: expressed in transfected cells
T9 sequence (Q15761 1-445): T8 sequence (Q15761 1-445)
Nature of the assay: Radioligand binding to cloned human Y5 receptor (125I-PYY). The settings on record: cloned human Y5, stably transfected cells, read-out: Binding Affinity (K1 (nM) vs. 125I-PYY) Human Receptor Y5.

Assay [2] deals with food intake in food-deprived rats. In words: Food intake in food-deprived rats (24 h food deprivation). The assay is classed as in vivo, rat. Also on record: concentration or dose not given beside the values. The settings on record: rats after 24 h food deprivation; two hours after administration of test compound.
Another assay concerns the target T10, human α1d receptor (Homo sapiens, UniProt P25100).
T10 construct: expressed in transfected cells
Nature of the assay: Binding to cloned human α1d adrenergic receptor.

In another assay the target is T11, human α2A receptor (Homo sapiens, UniProt P08913).
T11 construct: expressed in transfected cells
T11 sequence (P08913 whole entry): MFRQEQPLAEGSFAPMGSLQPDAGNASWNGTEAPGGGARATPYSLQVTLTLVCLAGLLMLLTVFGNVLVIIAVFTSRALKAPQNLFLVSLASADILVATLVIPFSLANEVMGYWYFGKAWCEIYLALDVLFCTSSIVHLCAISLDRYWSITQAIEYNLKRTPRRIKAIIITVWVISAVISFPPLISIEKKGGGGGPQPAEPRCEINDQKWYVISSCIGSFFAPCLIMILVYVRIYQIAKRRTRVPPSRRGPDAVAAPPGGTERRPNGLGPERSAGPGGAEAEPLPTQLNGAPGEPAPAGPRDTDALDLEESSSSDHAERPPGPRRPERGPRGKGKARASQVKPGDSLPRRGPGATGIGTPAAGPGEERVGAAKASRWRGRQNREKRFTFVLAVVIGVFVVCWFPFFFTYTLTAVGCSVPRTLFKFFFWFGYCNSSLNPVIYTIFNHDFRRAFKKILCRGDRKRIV
Nature of the assay: Binding to cloned human α2A adrenergic receptor ([3H]rauwolscine).

The next assay deals with T12, human 5HT1Dα receptor (Homo sapiens, UniProt P28221).
T12 construct: expressed in transfected cells
T12 sequence (P28221 whole entry): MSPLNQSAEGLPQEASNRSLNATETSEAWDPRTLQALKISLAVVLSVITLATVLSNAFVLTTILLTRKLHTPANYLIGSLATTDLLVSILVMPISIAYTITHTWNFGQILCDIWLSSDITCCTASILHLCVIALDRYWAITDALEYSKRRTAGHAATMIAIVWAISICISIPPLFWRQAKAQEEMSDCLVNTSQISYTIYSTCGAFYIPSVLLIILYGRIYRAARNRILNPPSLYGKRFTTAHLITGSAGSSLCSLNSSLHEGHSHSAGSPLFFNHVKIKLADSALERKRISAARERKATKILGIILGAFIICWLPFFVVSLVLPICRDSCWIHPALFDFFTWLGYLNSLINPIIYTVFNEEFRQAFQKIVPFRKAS
Nature of the assay: Binding to human 5HT1Dα receptor ([3H]serotonin). The settings on record: cloned human receptor.

T5 sequence (P35462 whole entry): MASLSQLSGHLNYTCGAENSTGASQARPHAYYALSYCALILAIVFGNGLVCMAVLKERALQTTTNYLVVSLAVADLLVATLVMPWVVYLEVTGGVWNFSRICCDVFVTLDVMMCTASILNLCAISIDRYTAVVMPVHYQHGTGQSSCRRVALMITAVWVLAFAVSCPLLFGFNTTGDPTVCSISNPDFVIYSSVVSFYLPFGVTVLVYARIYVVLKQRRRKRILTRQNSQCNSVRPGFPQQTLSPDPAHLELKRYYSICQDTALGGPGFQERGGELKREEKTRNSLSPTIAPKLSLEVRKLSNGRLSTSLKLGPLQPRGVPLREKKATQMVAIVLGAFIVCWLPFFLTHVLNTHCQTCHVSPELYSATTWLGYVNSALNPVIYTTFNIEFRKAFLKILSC
T10 sequence (P25100 whole entry): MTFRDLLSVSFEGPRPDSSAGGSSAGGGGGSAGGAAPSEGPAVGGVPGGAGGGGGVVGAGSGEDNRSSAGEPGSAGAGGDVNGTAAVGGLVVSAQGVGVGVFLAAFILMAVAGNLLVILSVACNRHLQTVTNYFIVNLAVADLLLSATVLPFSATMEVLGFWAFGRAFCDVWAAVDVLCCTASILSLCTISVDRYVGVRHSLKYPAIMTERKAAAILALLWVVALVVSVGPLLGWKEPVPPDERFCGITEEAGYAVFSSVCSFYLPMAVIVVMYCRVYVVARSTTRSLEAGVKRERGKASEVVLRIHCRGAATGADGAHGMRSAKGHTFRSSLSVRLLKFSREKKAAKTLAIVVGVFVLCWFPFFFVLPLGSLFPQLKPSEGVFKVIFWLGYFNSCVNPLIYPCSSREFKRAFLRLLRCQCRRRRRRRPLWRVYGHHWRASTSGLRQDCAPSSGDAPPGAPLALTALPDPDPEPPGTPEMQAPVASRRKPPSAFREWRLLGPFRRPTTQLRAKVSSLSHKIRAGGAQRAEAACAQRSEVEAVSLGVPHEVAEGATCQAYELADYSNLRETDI
T6 sequence (P50391 whole entry): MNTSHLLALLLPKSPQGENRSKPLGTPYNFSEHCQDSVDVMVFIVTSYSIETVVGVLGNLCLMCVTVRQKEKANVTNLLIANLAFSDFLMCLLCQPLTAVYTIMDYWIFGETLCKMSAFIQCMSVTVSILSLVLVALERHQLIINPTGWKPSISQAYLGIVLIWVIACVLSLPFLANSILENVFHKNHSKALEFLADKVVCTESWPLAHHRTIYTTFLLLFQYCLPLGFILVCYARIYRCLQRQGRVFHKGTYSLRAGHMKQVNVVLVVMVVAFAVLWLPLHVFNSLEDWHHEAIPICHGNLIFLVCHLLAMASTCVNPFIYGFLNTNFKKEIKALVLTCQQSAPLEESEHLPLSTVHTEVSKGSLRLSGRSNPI
T4 sequence (P28223 whole entry): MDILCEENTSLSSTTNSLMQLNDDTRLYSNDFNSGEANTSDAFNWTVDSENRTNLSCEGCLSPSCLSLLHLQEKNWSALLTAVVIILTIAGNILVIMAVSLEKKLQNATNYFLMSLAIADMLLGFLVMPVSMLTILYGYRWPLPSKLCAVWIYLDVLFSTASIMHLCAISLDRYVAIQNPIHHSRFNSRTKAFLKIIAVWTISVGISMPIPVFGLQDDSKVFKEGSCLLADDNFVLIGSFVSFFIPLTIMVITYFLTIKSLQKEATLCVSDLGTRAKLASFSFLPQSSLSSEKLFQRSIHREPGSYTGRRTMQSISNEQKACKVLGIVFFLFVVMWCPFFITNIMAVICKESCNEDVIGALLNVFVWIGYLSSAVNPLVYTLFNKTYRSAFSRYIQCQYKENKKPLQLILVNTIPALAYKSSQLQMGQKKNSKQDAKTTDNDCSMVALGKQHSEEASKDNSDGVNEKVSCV
T7 sequence (P28222 whole entry): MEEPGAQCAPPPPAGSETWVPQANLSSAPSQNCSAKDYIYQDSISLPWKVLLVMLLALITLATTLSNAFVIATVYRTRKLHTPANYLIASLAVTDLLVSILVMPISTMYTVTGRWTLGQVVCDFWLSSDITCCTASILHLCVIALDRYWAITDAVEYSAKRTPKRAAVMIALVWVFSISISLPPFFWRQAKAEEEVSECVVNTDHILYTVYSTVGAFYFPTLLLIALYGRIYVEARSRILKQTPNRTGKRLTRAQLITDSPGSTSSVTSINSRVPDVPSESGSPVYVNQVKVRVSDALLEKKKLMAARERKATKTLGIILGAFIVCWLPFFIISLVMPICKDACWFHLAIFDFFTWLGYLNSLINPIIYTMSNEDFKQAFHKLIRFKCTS
Protocol for human 5HT1Dα receptor: (§1) 5HT1Dα, 5HT1Dβ, 5HT1E, 5HT1F Receptors: LM(tk−) clonal cell lines stably transfected with the genes encoding each of these 5HT receptor subtypes were prepared as described above. […] Membrane preparations comprising these receptors were prepared as described below, and suspended in 50 mM Tris-HCl buffer (pH 7.4 at 37° C.) containing 10 mM MgCl2, 0.2 mM EDTA, 10 μM pargyline, and 0.1% ascorbate. The binding of compounds was determined in competition binding assays by incubation for 30 minutes at 37° C. in the presence of 5 nM [^3H) serotonin. Nonspecific binding was determined in the presence of 10 μM serotonin.
Protocol for human 5HT1Dβ receptor: as §1
Protocol for human 5HT2 receptor: Human 5HT2 Receptor: The coding sequence of the human 5HT2 receptor was obtained from a human brain cortex cDNA library, and cloned into the cloning site of pCEXV-3 eukaryotic expression vector. […] The pellet was suspended in 50 mM Tris-HCl buffer (pH 7.7 at room temperature) containing 10 mM MgSO4, 0.5mM EDTA, and 0.1% ascorbate. […] Nonspecific binding was defined by the addition of 10 μM mianserin.
Protocol for human Y1 receptor: Membranes were harvested from COS-7 cells 48 hours after transient transfection. […] Large particles and debris were cleared by low speed centrifugation (200 x g, 5 min, 4° C.). […] Membranes were held on ice for up to one hour and used fresh, or flash-frozen and stored in liquid nitrogen.
Incubations were terminated by filtration over Whatman GF/C filters (pre-coated with 1% polyethyleneimine and air-dried before use), followed by washing with 5 mL of ice-cold binding buffer.
Description for human α1a receptor: (§2) α1 Human Adrenergic Receptors: To determine the binding of compounds to human α1 receptors, LM(tk−) cell lines stably transfected with the genes encoding the α1a, α1b, and α1d receptors were used. The nomenclature describing the α1 receptors was changed recently, such that the receptor formerly designated α1a is now designated α1d, and the receptor formerly designated α1c is now designated α1a (ref).
Description for human α1d receptor: as §2
Protocol for human α2A receptor: (§3) α2 Human Adrenergic Receptors: To determine the binding of compounds to human α2 receptors, LM(tk−) cell lines stably transfected with the genes encoding the α2A, α2B, and α2C receptors were used. […] Cell lysates were prepared as described below (see Radioligand Dinding to Membrane Suspensions), and suspended in 25 mM glycylglycine buffer (pH 7.6 at room temperature). Equilibrium competition binding assay were performed using [^3H]rauwolscine (0.5 nM), and nonspecific binding was determined by incubation with 10 μM phentolamine.
Protocol for human α2B receptor: as §3

As a reminder, the Kb is the affinity of an antagonist, worked out from how it opposes an agonist. Consider `Cl.O=S(=O)(NCC1CCC(CNCC2CCc3ccccc3C2)CC1)c1cccc2ccccc12` (centres unmarked) [Example 32], for which the Ki on human Y1 receptor is 3550 nM; at human Y4 receptor, 11700 nM; at human Y5 receptor, 11 nM. For the same compound, the “Receptor (pKi) α2b” value at human α2B receptor was 6.58. For the same compound, the “Receptor (pKi) α1a” value at human α1a receptor amounted to 7.47. Also, at human 5HT2 receptor, the “Receptor (pKi) 5HT2” value stood at 6.55. The “Receptor (pKi) D3” value in [1] is on record as 6.69. Further, the “Receptor (pKi) 5HT1Dβ” value at human 5HT1Dβ receptor is recorded as at most 5.30. This compound displayed an antagonist equilibrium constant (Kb) on cloned human Y5 receptor of 23 nM. Further, in [2], the “Two-hour food intake, percentage of intake compared to control rats, Mean (%)” value amounted to 36%. For the same compound, the “Receptor (pKi) α1d” value at human α1d receptor was determined as 6.90. Further, on human α2A receptor, the “Receptor (pKi) α2a” value was found to be 6.74. The “Receptor (pKi) 5HT1Dα” value on human 5HT1Dα receptor is on record as 6.04.
On to `Cl.O=[N+]([O-])c1ccccc1S(=O)(=O)NCC1CCC(CNCC2CCc3ccccc3C2)CC1` (centres unmarked) [Example 36], for which the figures for the Ki on human Y1 receptor, at human Y4 receptor and at human Y5 receptor were 16000 nM, 20400 nM and 8.3 nM, respectively. The “Receptor (pKi) α2b” value on human α2B receptor is 6.96. The “Receptor (pKi) α1a” value at human α1a receptor stood at 7.72. At human 5HT2 receptor, the “Receptor (pKi) 5HT2” value was determined as 5.93. In assay [1], the “Receptor (pKi) D3” value turned out to be 6.35. The “Receptor (pKi) 5HT1Dβ” value at human 5HT1Dβ receptor came out at 5.37. At cloned human Y5 receptor, the Kb was found to be 26 nM. Besides, in [2], the “Two-hour food intake, percentage of intake compared to control rats, Mean (%)” value came to 35%. At human α1d receptor, the “Receptor (pKi) α1d” value was determined as 7.01. For the same compound, the “Receptor (pKi) α2a” value on human α2A receptor stood at 7.31. The “Receptor (pKi) 5HT1Dα” value on human 5HT1Dα receptor was 5.94.
